Several values for one entry are separate records, joined by “and”; a condition that tells them apart may be missing. Identical values can stand only once.
What was measured:
Louis pulmonary cancer = assay: Antitumor effect and weight change after single caudate vein administration to mice with subcutaneously transplanted Louis pulmonary cancer
Protocol: (§1) In FIG. 5, calculated were duration integrations (up to 17 days since drug treatment) of relative values in a change in a tumor volume and a weight change on a zero day, and the ratios of the drug-treated group to the drug-non-treat group in the values were shown as an antitumor effect and a weight change respectively. Further, the drug was administered once from a caudate vein to a normal C57BL6/N mouse (n=4, male, 6 ages in week) to evaluate a urea nitrogen (BUN) value in blood plasma after 6 days. […] The ratio of the drug-treated group to the drug-non-treat group in this BUN value was calculated as well, and the relative BUN value to the CDDP-equivalent dosage was shown in FIG. 5(C).

[1] = Urea nitrogen (BUN) value in blood plasma 6 days after single caudate vein administration to normal mice (index for nephrotoxicity); settings: normal mouse, 6 days after single administration, ratio to non-treated group
Protocol: as §1

[2] = Blood plasma platinum concentration and accumulation of platinum in tumor and principal organs after caudate vein administration to tumor-bearing mice
Protocol: Evaluated were a change in a blood plasma platinum concentration and a change with the passage of time in accumulation of platinum in the principal organs observed when free CDDP and the CDDP-encapsulating micelle were administered from a caudate vein to a C57BL6/N mouse (n=4, male, 6 ages in week) in which Louis pulmonary cancer was subcutaneously transplanted to a hypogastric region, and the results thereof are shown in FIG. 4.

[3] = 0–24 hours, tissue platinum concentration-time curve

Substance: cis-Diaminedichloroplatinum (II) [CDDP]
- toxic death (Louis pulmonary cancer; 12 mg/kg): one mouse out of 3 mice
- weight change (Louis pulmonary cancer; mouse, in vivo): reduction in the weight
- antitumor effect (Louis pulmonary cancer; single caudate vein administration, tumor volume integration up to 17 days, ratio to non-treated group): increase in the antitumor effect
- relative BUN value [1]: rise in the BUN value
- Kidney AUC/tumor AUC [2, 3]: 3.9 and 7.7
- Liver AUC/tumor AUC [2, 3]: 2.6 and 2.7
- Muscle AUC/tumor AUC [2, 3]: 0.13 and 0.17
- Spleen AUC/tumor AUC [2, 3]: 0.31 and 0.43
- accumulation of platinum in a kidney ([2]; immediately after administration (about 15 minutes)): high accumulation immediately after administration

From patent US7125546B2, “Polymeric micelle containing cisplatin enclosed therein and use thereof” (Toudai TLO, Ltd., priority 2000, dated 2006)
